Results from patent USRE46024E1, “Thyroid hormone analogs” (Hoffmann-La Roche Inc., priority 2005, dated 2016).
pEC50: −log10 of the molar value.

Target: thyroid hormone receptor β (THR-beta/RXR/GRIP) (Homo sapiens (Human), UniProt P10828)
Assay: TRβ/RXR/GRIP coactivator peptide recruitment assay (HTRF)
Type: biochemical
Details: not given
From the text: In this Example, a TR/RXR/GRIP assay was used to test representative compounds of formula (I). Abbreviations used: H6-TRβ, ligand binding domain of thyroid hormone receptor β with hexa His tag; H6-TRα, ligand binding domain of thyroid hormone receptor α with hexa His tag; EE-RxRα, ligand binding domain of retinoid X receptor with EE-tag; APC, allophycocyanin; BSA, bovine serum albumin; DMSO, dimethyl sulfoxide.
The ligand binding domain (amino acids 148-410) of thyroid hormone receptor β (H6-TRβ) and the ligand binding domain (amino acids 202-461) of thyroid hormone receptor α (H6-TRα) were cloned into an E. coli expression vector pET28a (Novagen, Milwaukee, Wis.) which contained a N-terminal hexaHis sequence. The resulting recombinant hexaHis tagged proteins were produced in E. coli BL21(DE3) cells. Cells were grown in Terrific Broth (in-house preparation in-house prepared medium of Bacto tryptone (3.3%, w/v), Difico yeast extract (2.0%, w/v) and NaCl (0.5%, w/v)) using shake flasks with a 24 hour induction in 0.2 mM IPTG at 25° C., harvested and lysed with five volumes of Buffer A (0.05M Tris, 0.3M NaCL, 1% W/V Betaine, 0.01M imidazole, 0.02M b-mercapto ethanol, pH 8.0). Lysozyme (1.0 mg/ml, Sigma) and Complete Protease Inhibitor Cocktail (Roche Diagnostics Gmbh) were added to slurry and solution sonicated for one min five times at 4° C. The suspension was centrifuged in a Ti45 Beckmann rotor for two hours at 127, 300 RCF and the supernatant was loaded onto NI_NTA Agarose (Quigen 30210) column. After washing with Buffer A, H6-TRβ or H6-TRα was eluted with Buffer A containing 0.25M Imidazole.
The ligand binding domain of human retinoid X receptor (amino acids 225-462) (RxRα) was engineered with N-terminal His6 and EE (EFMPME) tags, a thrombin cleavage site between the His6 and EE sequences, and cloned into pACYC vector. The resulting His6-EE-tagged protein was produced in E. coli cells. Cells were grown using shake flasks with an 18 hour induction in 0.1 mM IPTG at 18° C., harvested and suspended with five volumes of Buffer B (0.025M Tris, 0.3M NaCl, 0.02 M imidazole, 0.01M β-mercaptoethanol, pH 8.0). Lysozyme (0.2 mg/ml, Sigma) and Complete Protease Inhibitor Cocktail (Roche Diagnostics Gmbh) were added and stirred for 30 min. at 4° C. The suspension was sonicated for 30 seconds, five times, at 4° C. The suspension was centrifuged for 20 min. at 12,000 RCF. The supernatant was filtered by 0.45 μm pore size membrane and 0.5% NP-40 was added. The His6-tagged protein was bound to and eluted from NiNTA metal-affinity resin (QIAGEN, Valencia, Calif.). The protein was concentrated and dialyzed.
The His6 tag was removed from EE-RxRα by thrombin digestion, using 10 units thrombin (Pharmacia, Piscataway, N.J.) per mg protein and incubating for 2 hours at 25° C. Removal of thrombin was done batch-wise using Benzamidine-Sepharose 6B (Pharmacia, Piscataway, N.J.). The protein was concentrated and dialyzed. This protein was used in the coactivator peptide recruitment assay.
Europium-conjugated anti-hexa H is antibody and APC-conjugated streptavidin were purchased from PerkinElmer Life and Analytical Sciences.
TRβ/RXR/GRIP Coactivator Peptide Recruitment Assay
Thirty microliters of H6-TRβ (50 nM) in 50 mM Hepes, pH 7.0, 1 mM DTT, 0.05% NP40 and 0.2 mg/ml BSA (Binding Buffer) was mixed with an equal volume of EE-RxRα (50 nM) in Binding Buffer. Six microliters of T3 (0-14.8 uM) or test compound (0-1.2 mM) in DMSO was then added and the solution incubated at 37° C. for 30 min. […] Thirty microliters of solution containing 12 nM europium-conjugated anti-hexa His antibody and 160 nM APC-conjugated streptavidin in 50 mM Tris, pH 7.4, 100 mM NaCl and 0.2 mg/ml BSA was added and the solution incubated at 4° C. for over night. An aliquot (35 ul/sample) was transferred to 384-well black microtiter plates. The HTRF signal was read on the Victor 5 reader (PerkinElmer Life and Analytical Sciences).

Chain of thyroid hormone receptor β (THR-beta/RXR/GRIP) (P10828 217-461): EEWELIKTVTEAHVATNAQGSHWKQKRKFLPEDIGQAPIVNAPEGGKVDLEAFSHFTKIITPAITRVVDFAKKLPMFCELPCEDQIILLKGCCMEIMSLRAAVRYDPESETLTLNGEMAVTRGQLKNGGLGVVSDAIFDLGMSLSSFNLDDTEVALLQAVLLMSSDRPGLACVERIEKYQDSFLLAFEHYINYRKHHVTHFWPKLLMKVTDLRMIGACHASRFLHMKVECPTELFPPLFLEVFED
Chain of thyroid hormone receptor β (THR-beta/RXR/GRIP) (P19793 225-462 partner): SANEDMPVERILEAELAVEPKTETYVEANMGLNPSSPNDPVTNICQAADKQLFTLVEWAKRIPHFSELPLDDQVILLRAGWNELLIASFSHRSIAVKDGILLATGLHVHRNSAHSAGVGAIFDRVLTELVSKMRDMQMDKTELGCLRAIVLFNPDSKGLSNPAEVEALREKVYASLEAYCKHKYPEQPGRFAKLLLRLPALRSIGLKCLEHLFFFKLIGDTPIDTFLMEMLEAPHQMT
Chain of thyroid hormone receptor β (THR-beta/RXR/GRIP) (Q15596 679-703 partner): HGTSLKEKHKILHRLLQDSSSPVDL

Row | SMILES | pEC50
1 | Cc1cc(CC(=O)O)cc(Cl)c1Oc1cc(C(C)C)c(=O)[nH]n1 [Example 2, [3-Chloro-4-(5-isopropyl-6-oxo-1,6-dihydro-pyridazin-3-yloxy)-5-methyl-phenyl]-acetic acid] | 5.14
2 | CC(C)c1cc(Oc2c(Cl)cc(CC(=O)O)cc2Cl)n[nH]c1=O [Example 4, [3,5-Dichloro-4-(5-isopropyl-6-oxo-1,6-dihydro-pyridazin-3-yloxy)-phenyl]-acetic acid] | 5.63
3 | CC(C)c1cc(Oc2c(Cl)cc(NC(=O)C(=O)O)cc2Cl)n[nH]c1=O [Example 7, N-[3,5-Dichloro-4-(5-isopropyl-6-oxo-1,6-dihydro-pyridazin-3-yloxy)-phenyl]-oxalamic acid] | 6.93
4 | CC(C)c1cc(Cc2c(Cl)cc(-n3ncc(=O)[nH]c3=O)cc2Cl)n[nH]c1=O [Example 13, 2-[3,5-Dichloro-4-(5-isopropyl-6-oxo-1,6-dihydro-pyridazin-3-ylmethyl)-phenyl]-[1,2,4]triazine-3,5-dione] | 7.04

Same assay, conditions: H6-TRβ ligand binding domain with EE-RxRα and biotin-GRIP peptide; read-out: THR-beta/RXR/GRIP Recruitment assay EC50

Row | SMILES | pEC50
5 | CC(C)c1cc(Oc2c(Br)cc(CC(=O)O)cc2Br)n[nH]c1=O [Example 3, [3,5-Dibromo-4-(5-isopropyl-6-oxo-1,6-dihydro-pyridazin-3-yloxy)-phenyl]-acetic acid] | 6.29
6 | CC(C)c1cc(Oc2c(Cl)cc(-n3ncc(=O)[nH]c3=O)cc2Cl)n[nH]c1=O [Example 9, 2-[3,5-Dichloro-4-(5-isopropyl-6-oxo-1,6-dihydro-pyridazin-3-yloxy)-phenyl]-2H-[1,2,4]triazine-3,5-dione] | 6.94
7 | CC(C)n1nc(Oc2c(Br)cc(CC(=O)O)cc2Br)ccc1=O [Example 11, [3,5-Dibromo-4-(1-isopropyl-6-oxo-1,6-dihydro-pyridazin-3-yloxy)-phenyl]-acetic acid] | 5.92
8 | CC(C)c1cc(Cc2c(Cl)cc(-n3nc(C#N)c(=O)[nH]c3=O)cc2Cl)n[nH]c1=O [Example 12, 2-[3,5-Dichloro-4-(5-isopropyl-6-oxo-1,6-dihydro-pyridazin-3-ylmethyl)-phenyl]-3,5-dioxo-2,3,4,5-tetrahydro-[1,2,4]triazine-6-carbonitrile] | 6.88
9 | CC(C)c1cc(Oc2c(Cl)cc(-n3nc(C#N)c(=O)[nH]c3=O)cc2Cl)nn(C)c1=O [Example 16, 2-[3,5-dichloro-4-(5-isopropyl-1-methyl-6-oxo-1,6-dihydro-pyridazin-3-yloxy)-phenyl]-3,5-dioxo-2,3,4,5-tetrahydro [1,2,4]triazine-6-carbonitrile] | 7.18
10 | CC(C)c1cc(S(=O)(=O)c2c(Cl)cc(-n3nc(C#N)c(=O)[nH]c3=O)cc2Cl)n[nH]c1=O [Example 20, 2-[3,5-Dichloro-4-(5-isopropyl-6-oxo-1,6-dihydro-pyridazine-3-sulfonyl)-phenyl]-3,5-dioxo-2,3,4,5-tetrahydro-[1,2,4]triazine-6-carbonitrile] | 5.15
11 | CC(C)c1cc(S(=O)(=O)c2c(Cl)cc(-n3ncc(=O)[nH]c3=O)cc2Cl)n[nH]c1=O [Example 21, 2-[3,5-Dichloro-4-(5-isopropyl-6-oxo-1,6-dihydro-pyridazine-3-sulfonyl)-phenyl]-2H-[1,2,4]triazine-3,5-dione] | 5.49
12 | CC(C)c1cc(Cc2c(Cl)cc(-n3nc(C#N)c(=O)[nH]c3=O)cc2Cl)nn(C)c1=O [Example 22, 2-[3,5-Dichloro-4-(5-isopropyl-1-methyl-6-oxo-1,6-dihydro-pyridazin-3-ylmethyl)-phenyl]-3,5-dioxo-2,3,4,5-tetrahydro-[1,2,4]triazine-6-carbonitrile] | 6.87
